Series [1] relates to Pseudopyrenochaeta lycopersici. The series can be described thus: Fungicidal activity against Pyrenochaeta lycopersici infected tomato plant assessed as diseased root surface at 87.5 to 100 mg/l after 120 days under greenhouse condition relative to untreated control. The format is functional.
For series [2], the system named is Verticillium dahliae. The series can be described thus: Fungicidal activity against Verticillium dahliae infected eggplant assessed as vascular discoloration at 100 to 250 mg/l after 120 days under field condition relative to untreated control. The format is functional, organism-based.
Series [3] deals with Solanum lycopersicum. Description: Phytotoxicity in Solanum lycopersicum (tomato) plant assessed as leaf chlorosis at 100 to 250 mg/l after 120 days under field condition. Conditions: in vivo, 2880 h. The format is organism-based.
Series [4] relates to Pseudopyrenochaeta lycopersici. Description: Fungicidal activity against Pyrenochaeta lycopersici infected tomato plant assessed as diseased root surface at 100 to 250 mg/l after 100 days under field condition relative to untreated control. It counts as functional.
In series [5] the test system is Verticillium dahliae. The series can be described thus: Fungicidal activity against Verticillium dahliae infected eggplant assessed as reduction in severity of external symptoms at 100 to 250 mg/l after 80 to 120 days under field condition relative to untreated control. The format is functional. Further details: scale not given: the % may be the effect or the level left.

For series [6], the system named is Solanum melongena. The series can be described thus: Phytotoxicity in Solanum melongena (eggplant) assessed as leaf chlorosis at 100 to 250 mg/l after 80 to 120 days under field condition. The format is organism-based. Conditions: in vivo.
Series [7] deals with Verticillium dahliae. Description: Fungicidal activity against Verticillium dahliae infected eggplant assessed as wilted leaves at 87.5 to 100 mg/l after 80 days under greenhouse condition relative to untreated control. The format is functional.
Series [8] has as its system Solanum melongena. Description: Phytotoxicity in Solanum melongena (eggplant) assessed as plant stunting at 87.5 to 100 mg/l after 80 days under greenhouse condition. The format is organism-based. Conditions: in vivo, 1920 h.
In series [9] the test system is Solanum lycopersicum. The series can be described thus: Phytotoxicity in Solanum lycopersicum (tomato) plant assessed as plant stunting at 87.5 to 100 mg/l after 120 days under greenhouse condition. The format is organism-based. Conditions: in vivo, 2880 h.
Series [10] relates to Solanum melongena. Description: Phytotoxicity in Solanum melongena (eggplant) assessed as leaf chlorosis at 12.5 mg/l after 80 to 120 days under field condition. The format is organism-based. Conditions: in vivo.
Series [11] deals with Solanum melongena. The series can be described thus: Phytotoxicity in Solanum melongena (eggplant) assessed as leaf chlorosis at 12.5 to 87.5 mg/l after 80 days under greenhouse condition. It counts as organism-based. Conditions: in vivo, 1920 h.
The test system of series [12] is Solanum lycopersicum. The series can be described thus: Phytotoxicity in Solanum lycopersicum (tomato) plant assessed as leaf chlorosis at 12.5 to 87.5 mg/l after 120 days under greenhouse condition. It counts as organism-based. Conditions: in vivo, 2880 h.
In series [13] the test system is Solanum lycopersicum. Description: Phytotoxicity in Solanum lycopersicum (tomato) plant assessed as plant stunting at 12.5 to 87.5 mg/l after 120 days under greenhouse condition. The format is organism-based. Conditions: in vivo, 2880 h.
Series [14] has as its system Solanum lycopersicum. Description: Induction of systemic acquired resistance activity in Solanum lycopersicum (tomato) plant infected with Pyrenochaeta lycopersici assessed as diseased root surface at 12.5 mg/l after 100 days under field condition relative to untreated control. It counts as functional.
Series [15] concerns Solanum melongena. The series can be described thus: Phytotoxicity in Solanum melongena (eggplant) assessed as plant stunting at 12.5 to 87.5 mg/l after 80 days under greenhouse condition. The format is organism-based. Conditions: in vivo, 1920 h.
Series [16] concerns Solanum melongena. The series can be described thus: Induction of systemic acquired resistance activity in Solanum melongena (eggplant) infected with Verticillium dahliae assessed as reduction in severity of external symptoms at 12.5 mg/l after 80 to 120 days under field condition relative to untreated control. The format is functional. Further details: scale not given: the % may be the effect or the level left.

The test system of series [17] is Solanum melongena. Description: Induction of systemic acquired resistance activity in Solanum melongena (eggplant) infected with Verticillium dahliae assessed as vascular discoloration at 12.5 mg/l after 120 days under field condition relative to untreated control. It counts as functional, organism-based.
Series [18] deals with Solanum lycopersicum. The series can be described thus: Phytotoxicity in Solanum lycopersicum (tomato) plant assessed as leaf chlorosis at 12.5 mg/l after 120 days under field condition. It counts as organism-based. Conditions: in vivo, 2880 h.
The test system of series [19] is Solanum lycopersicum. The series can be described thus: Phytotoxicity in Solanum lycopersicum (tomato) plant assessed as plant stunting after 120 days under greenhouse condition. The format is organism-based. Conditions: in vivo, 2880 h.
Series [20] relates to Verticillium dahliae. The series can be described thus: Fungicidal activity against Verticillium dahliae infected eggplant assessed as vascular discoloration applied as dipping of seedling roots into fungicide water suspension before transplanting and one soil drench post transplanting after 120 days under field condition relative to untreated control. It counts as functional, organism-based.

For series [21], the system named is Pseudopyrenochaeta lycopersici. Description: Fungicidal activity against Pyrenochaeta lycopersici infected tomato plant assessed as diseased root surface applied as dipping of seedling roots into fungicide water suspension before transplanting and two soil drenches post transplanting after 100 days under field condition relative to untreated control. It counts as functional.

Series [22] deals with Pseudopyrenochaeta lycopersici. The series can be described thus: Fungicidal activity against Pyrenochaeta lycopersici infected tomato plant assessed as diseased root surface applied as dipping of seedling roots into fungicide water suspension before transplanting and one soil drench post transplanting after 100 days under field condition relative to untreated control. The format is functional.

Series [23] concerns Verticillium dahliae. The series can be described thus: Fungicidal activity against Verticillium dahliae infected eggplant assessed as reduction in severity of external symptoms applied as dipping of seedling roots into fungicide water suspension before transplanting and two soil drenches post transplanting after 80 to 120 days under field condition relative to untreated control. It counts as functional. Details: scale not given: the % may be the effect or the level left.

The subject of series [24] is Pseudopyrenochaeta lycopersici. The series can be described thus: Fungicidal activity against Pyrenochaeta lycopersici infected tomato plant assessed as diseased root surface after 120 days under greenhouse condition relative to untreated control. It counts as functional.
For series [25], the system named is Pseudopyrenochaeta lycopersici. The series can be described thus: Fungicidal activity against Pyrenochaeta lycopersici infected tomato plant assessed as diseased root surface applied as one soil drench and two foliar sprays post transplanting after 100 days under field condition relative to untreated control. The format is functional.
For series [26], the system named is Verticillium dahliae. The series can be described thus: Fungicidal activity against Verticillium dahliae infected eggplant assessed as vascular discoloration applied as dipping of seedling roots into fungicide water suspension before transplanting and two soil drenches post transplanting after 120 days under field condition relative to untreated control. The format is functional, organism-based.

Series [27] deals with Verticillium dahliae. Description: Fungicidal activity against Verticillium dahliae infected eggplant assessed as wilted leaves after 80 days under greenhouse condition relative to untreated control. The format is functional.
The test system of series [28] is Verticillium dahliae. The series can be described thus: Fungicidal activity against Verticillium dahliae infected eggplant assessed as reduction in severity of external symptoms applied as one soil drench and two foliar sprays post transplanting after 80 to 120 days under field condition relative to untreated control. It counts as functional. Details: scale not given: the % may be the effect or the level left.

Series [29] has as its system Solanum melongena. The series can be described thus: Phytotoxicity in Solanum melongena (eggplant) assessed as plant stunting during early growth stage after 80 to 120 days under field condition. The format is organism-based. Conditions: in vivo.
Series [30] relates to Verticillium dahliae. Description: Fungicidal activity against Verticillium dahliae infected eggplant assessed as reduction in severity of external symptoms applied as dipping of seedling roots into fungicide water suspension before transplanting and one soil drench post transplanting after 80 to 120 days under field condition relative to untreated control. It counts as functional. Further details: scale not given: the % may be the effect or the level left.

For series [31], the system named is Verticillium dahliae. The series can be described thus: Fungicidal activity against Verticillium dahliae infected eggplant assessed as vascular discoloration applied as one soil drench and two foliar sprays post transplanting after 120 days under field condition relative to untreated control. It counts as functional, organism-based.
In series [32] the test system is Solanum melongena. Description: Phytotoxicity in Solanum melongena (eggplant) assessed as plant stunting after 80 days under greenhouse condition. The format is organism-based. Conditions: in vivo, 1920 h.
In series [33] the test system is Solanum lycopersicum. Description: Phytotoxicity in Solanum lycopersicum (tomato) plant assessed as plant stunting during early growth stage after 120 days under field condition. Conditions: in vivo, 2880 h. It counts as organism-based.

The source made the active and inactive calls. The calls are words filed in the database; no cut-off is given here.

For three compounds, Activity results are on record in ChEMBL document CHEMBL3044978, “Efficacy of acibenzolar-S-methyl and two strobilurins, azoxystrobin and trifloxystrobin, for the control of corky root of tomato and verticillium wilt of eggplant” (Crop Prot, 2006).

For the compound `CO/N=C(\C(=O)OC)c1ccccc1CO/N=C(\C)c1cccc(C(F)(F)F)c1`, the Activity is 93.3% in series [1]; “Non-toxic” in series [3]; 48.7% in series [4]; 17.6% in series [5]; “Non-toxic” in series [6]; 78.1% in [7]. Also, the Activity result in series [8] and in series [9] was “Non-toxic” throughout. The outcome in [2] was inactive.
Regarding `CSC(=O)c1cccc2nnsc12` [ACIBENZOLAR-S-METHYL], the Activity entry in series [10] is on record as “Non-toxic”; in series [11], “Toxic”; in series [12], “Toxic”; in series [13], “Toxic”; in [14] it was 62.7%; in [15] it was “Toxic”. Besides, the Activity is listed as 6.9% in [16] and “Non-toxic” in [18]. The result in series [17] was inactive.
On to `CO/C=C(/C(=O)OC)c1ccccc1Oc1cc(Oc2ccccc2C#N)ncn1` [AZOXYSTROBIN], for which the Activity entry was “Toxic” in [19]; 83.7% in series [21]; 73.5% in series [22]; 24.6% in series [23]; 98.3% in series [24]; 81.7% in [25]. Also, the Activity is on record as 95.1% in series [27]; 24.6% in [28]; “Toxic” in series [29]; 29.4% in series [30]; “Toxic” in [32]; “Toxic” in series [33]. The outcome in series [20], in [26] and in series [31] was inactive.
